Key:
aromatase [1] = biological target: T1, aromatase (Rattus norvegicus, UniProt P22443); experiment: biochemical
T1 sequence (P22443 1-508): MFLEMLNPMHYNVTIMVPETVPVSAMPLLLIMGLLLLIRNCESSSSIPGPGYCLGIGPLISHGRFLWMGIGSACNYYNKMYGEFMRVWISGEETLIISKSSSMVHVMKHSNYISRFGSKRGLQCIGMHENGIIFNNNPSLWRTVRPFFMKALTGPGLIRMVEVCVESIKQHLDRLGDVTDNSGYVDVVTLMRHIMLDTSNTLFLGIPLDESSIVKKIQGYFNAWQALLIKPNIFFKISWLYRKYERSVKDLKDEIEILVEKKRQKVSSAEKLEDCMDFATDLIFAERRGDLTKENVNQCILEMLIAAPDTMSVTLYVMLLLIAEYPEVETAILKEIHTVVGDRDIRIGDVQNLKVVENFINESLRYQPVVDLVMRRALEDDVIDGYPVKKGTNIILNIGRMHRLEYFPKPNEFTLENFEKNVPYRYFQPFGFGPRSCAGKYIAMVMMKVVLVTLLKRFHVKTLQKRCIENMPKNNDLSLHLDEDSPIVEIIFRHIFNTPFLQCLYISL
Source text: IC50 of a test compound in aromatase inhibition was obtained from inhibition of ^3 H2 O released from [1,2-^3 H]-androstenedione in the microsome of a rat ovary.

estradiol biosynthesis = experiment: In vivo inhibiting activity on estrogen production in rat (PMSG-primed, ovarian estradiol by RIA); settings: po, per os, 3 hours after administration, read-out: inhibition on estradiol biosynthesis with respect to the control
Procedure: (b) In vivo inhibiting activity on estrogen production in rat:
PMSG (pregnant mare serum gonadotropin) (100 IU/rat) was subcutaneously injected to an immature female Wister rat weighing 60 g. After 72 hours from the injection, a suspension of a test compound in 0.5 ml of 20% polyethylene glycol aqueous solution was given to the rat per os. A 20% polyethylene glycol aqueous solution was administered to a control group. After 3 hours from the administration of the drug or placebo, the rat was decapitated and bled out, and the ovary was removed. The estradiol concentration in the ovary was measured by RIA.

[2] = tested on: dimethylbenzanthracene (DMBA)-induced tumor; experiment: Antitumor activity in rat, DMBA-induced breast carcinoma; type: in vivo; settings: orally, daily dose of from 0.04 to 1.0 mg/kg for 2 weeks, rats bearing breast carcinoma
Procedure: (c) Antitumor activity in rat:
The antitumor activity on breast carcinoma was measured in a dimethylbenzanthracene (DMBA)-induced tumor in a female Sprague-Dawlay rat.
This experimentation is commonly employed as a method for determining an antitumor activity in an animal model of breast carcinoma.

aromatase [3] = biological target: T2, aromatase (Homo sapiens, UniProt P11511); experiment: Inhibiting activity on aromatase of human placenta origin (microsome, 3H2O release from [1,2-3H]androstenedione); type: biochemical; settings: in vitro, read-out: IC50 for in vitro aromatase inhibition
T2 construct: in the microsome of a human placenta; from tissue; host or cells: human placenta microsomes
T2 sequence (P11511 1-503): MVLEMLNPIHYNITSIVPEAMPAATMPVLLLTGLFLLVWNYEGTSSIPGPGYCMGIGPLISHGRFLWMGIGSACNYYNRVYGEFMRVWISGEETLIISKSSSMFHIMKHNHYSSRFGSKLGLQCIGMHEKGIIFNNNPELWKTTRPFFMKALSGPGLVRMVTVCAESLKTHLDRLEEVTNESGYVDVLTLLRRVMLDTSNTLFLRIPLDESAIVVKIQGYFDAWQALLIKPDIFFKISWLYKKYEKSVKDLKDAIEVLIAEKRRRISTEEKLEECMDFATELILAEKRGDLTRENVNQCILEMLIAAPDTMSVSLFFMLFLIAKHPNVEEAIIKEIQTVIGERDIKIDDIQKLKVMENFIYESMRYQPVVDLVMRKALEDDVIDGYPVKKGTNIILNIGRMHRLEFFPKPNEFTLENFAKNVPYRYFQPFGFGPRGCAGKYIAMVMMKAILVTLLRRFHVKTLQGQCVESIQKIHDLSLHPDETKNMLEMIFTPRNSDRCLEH
Source text: (a) Inhibiting activity on aromatase of human placenta origin:
Measured in accordance with the method described in Endocrine Research, Vol. 16, No. 2, p. 253 (1990).
The inhibiting activity of a test compound was obtained from inhibition of ^3 H2 O released from [1,2-^3 H]androstenedione in the microsome of a human placenta.
IC50 value for in vitro aromatase inhibition in the microsome of a human placenta was obtained according to the method (2)-(a).

Row | SMILES | EC50 (aromatase [1]) | inhibition at 0.03 mg/kg (estradiol biosynthesis) | suppression or regression of tumors in the mammary gland [2] | IC50 (aromatase [3]) | IC50 (aromatase [1])
1 | Fc1ccc(N(Cc2ccccc2)Cc2cccnc2)c(F)c1 [Comparative Compound 2, reference compound] | < 50 nM |  |  |  | 
2 | N#Cc1ccc(N(Cc2cc(F)cc(F)c2)c2cncnc2)cc1 [Example 34, 5-[N-(4-Cyanophenyl)-N-(3,5-difluorobenzyl)amino]pyrimidine] |  | 86% | suppression or regression of tumors | 0.036 nM | 0.22 nM

— US5538976A, “Substituted tertiary amino compound or salt thereof” (Yamanouchi Pharmaceutical Co., Ltd., priority 1992, dated 1996)
